According to the CheMixHub viscosity set:

Assay: xn = mol fraction of the nth substance listed

O=C1CCCO1 + CCOC(C)=O
298.15 K, 101.33 kPa
Conditions	viscosity [mPa·s]
x2 = 0.0501	1.575
x2 = 0.1023	1.453
x2 = 0.1528	1.345
x2 = 0.2005	1.249
x2 = 0.2542	1.152
x2 = 0.3039	1.071
x2 = 0.4046	0.926
x2 = 0.4546	0.864
x2 = 0.5006	0.81
x2 = 0.5528	0.755
x2 = 0.6019	0.707
x2 = 0.6994	0.622
x2 = 0.75	0.583
x2 = 0.7981	0.547
x2 = 0.849	0.513
x2 = 0.902	0.481
x2 = 0.9504	0.45

N#C[S-].[NH4+] + CCOS(=O)(=O)[O-].CC[n+]1ccn(C)c1
viscosity [mPa·s], 101 kPa
Conditions	x1 = 0.0235	x1 = 0.1553	x1 = 0.3025	x1 = 0.4042	x1 = 0.5205	x1 = 0.565	x1 = 0.5997
298.15 K	103.1	150	209.3	231.1	223.9	215.9	208.9
303.15 K	81.26	118	163.3	178.7	173.4	172.5	168.2
308.15 K	65.16	94.31	129.6	140.9	135.3	133.9	133.7
313.15 K	53.09	76.57	104.6	112.9	107.5	106	105.4
318.15 K	43.86	63.03	85.57	91.83	86.87	85.31	84.57
323.15 K	36.68	52.56	70.9	75.56	71.22	69.75	68.92

FB(F)F + CCOc1ccccc1
viscosity [mPa·s], 101 kPa
Conditions	293.15 K	298.15 K	303.15 K
x1 = 0.00901	1.29	1.18	1.08
x1 = 0.1455	1.53	1.39	1.27
x1 = 0.2874	2.42	2.17	1.96
x1 = 0.3269	2.79	2.51	2.25
x1 = 0.3742	3.38	3.01	2.68
x1 = 0.3817	3.48	3.1	2.74
x1 = 0.4143	4	3.52	3.08
x1 = 0.4429	4.57	3.97	3.5
x1 = 0.456	4.87	4.24	3.7
x1 = 0.4744	5.39	4.69	4.06
x1 = 0.4962	6.02	5.19	4.48

N#C[S-].[NH4+] + CCn1cc[n+](C)c1.N#C[S-]
viscosity [mPa·s], 100 kPa
Conditions	298.15 K	303.15 K	308.15 K	313.15 K	318.15 K	323.15 K
x1 = 0.039	25.91	21.97	18.84	16.11	14.28	12.59
x1 = 0.099	29.91	25.16	21.4	18.21	16	14.03
x1 = 0.1395	31.58	26.49	22.47	19.09	16.71	14.62

Brc1ccccc1 + CN1CCCC1=O
viscosity [mPa·s], 101 kPa
Conditions	x2 = 0.1084	x2 = 0.2149	x2 = 0.3193	x2 = 0.4219	x2 = 0.5226	x2 = 0.6215	x2 = 0.7186	x2 = 0.8141	x2 = 0.9078
303.15 K	1.068	1.146	1.22	1.284	1.344	1.396	1.441	1.484	1.522
308.15 K	1.023	1.089	1.148	1.201	1.25	1.29	1.326	1.358	1.382
313.15 K	0.9408	1.005	1.061	1.113	1.159	1.199	1.236	1.268	1.295
318.15 K	0.8512	0.9073	0.9593	1.008	1.052	1.09	1.126	1.157	1.184

BrCCBr + CN1CCC[C@H]1c1cccnc1
viscosity [mPa·s], 101.33 kPa
Conditions	x2 = 0.121	x2 = 0.2341	x2 = 0.3736	x2 = 0.4915	x2 = 0.613	x2 = 0.7575	x2 = 0.8734
298.15 K	1.765	1.939	2.233	2.523	2.804	3.055	3.341
323.15 K	1.2	1.383	1.466	1.599	1.714	1.838	1.884

Brc1ccccc1 + CN(C)C=O
viscosity [mPa·s], 101.33 kPa
Conditions	x2 = 0.0879	x2 = 0.2075	x2 = 0.3085	x2 = 0.4055	x2 = 0.5063	x2 = 0.6027	x2 = 0.6877	x2 = 0.8054	x2 = 0.9001	x2 = 0.9002
303.15 K	0.982	0.973	0.963	0.949	0.931	0.905	0.879	0.831	–	0.789
313.15 K	0.889	0.879	0.87	0.854	0.838	0.816	0.792	0.749	0.711	–

C1COCCO1 + CN(C)C=O
viscosity [mPa·s], 101 kPa
Conditions	x2 = 0.1181	x2 = 0.2316	x2 = 0.3406	x2 = 0.4455	x2 = 0.5465	x2 = 0.6439	x2 = 0.7377	x2 = 0.8282	x2 = 0.9156
298.15 K	1.109	1.043	0.984	0.934	0.891	0.859	0.835	0.82	0.811
308.15 K	0.952	0.899	0.849	0.807	0.772	0.746	0.726	0.714	0.708
318.15 K	0.843	0.797	0.753	0.713	0.68	0.653	0.636	0.624	0.618

CCCCCC(=O)[O-].C[NH2+]c1ccccc1 + CN(C)C=O
viscosity [mPa·s], 101 kPa
Conditions	x1 = 0.004889	x1 = 0.008423	x1 = 0.01411	x1 = 0.01792	x1 = 0.02131	x1 = 0.02717	x1 = 0.0305	x1 = 0.03458
293.15 K	0.957	0.969	0.992	1.009	1.026	1.052	1.072	1.099
298.15 K	0.916	0.926	0.946	0.961	0.975	0.998	1.016	1.038
303.15 K	0.879	0.887	0.905	0.918	0.93	0.95	0.966	0.985
308.15 K	0.846	0.854	0.869	0.881	0.891	0.909	0.923	0.94
313.15 K	0.817	0.824	0.837	0.847	0.857	0.873	0.884	0.899
318.15 K	0.791	0.797	0.809	0.818	0.826	0.84	0.85	0.863
323.15 K	0.767	0.772	0.784	0.791	0.798	0.812	0.82	0.831

COc1ccccc1O + CN(C)c1ccccc1
303.15 K, 101 kPa
Conditions	viscosity [mPa·s]
x2 = 0.1	3.71
x2 = 0.2	3.21
x2 = 0.3	2.84
x2 = 0.4	2.46
x2 = 0.5	2.16
x2 = 0.6	1.89
x2 = 0.7	1.65
x2 = 0.8	1.46
x2 = 0.9	1.31

O=C1CCCCO1 + CNC(C)=O
viscosity [mPa·s], 101 kPa
Conditions	x2 = 0.0818	x2 = 0.2377	x2 = 0.3396	x2 = 0.4641	x2 = 0.5194	x2 = 0.717	x2 = 0.7962	x2 = 0.8929	x2 = 0.9596
303.15 K	2.648	2.494	2.393	2.352	2.389	2.607	2.782	3.108	3.512
308.15 K	2.412	2.288	2.199	2.203	2.222	2.422	2.583	2.896	3.125
313.15 K	2.204	2.101	2.06	2.021	2.023	2.165	2.304	2.559	2.765
318.15 K	2.02	1.916	1.862	1.843	1.862	1.994	2.111	2.3	2.491

COc1ccccc1O + CNc1ccccc1
303.15 K, 101 kPa
Conditions	viscosity [mPa·s]
x2 = 0.1	4
x2 = 0.2	3.72
x2 = 0.3	3.36
x2 = 0.4	3.03
x2 = 0.5	2.76
x2 = 0.6	2.44
x2 = 0.7	2.22
x2 = 0.8	1.99
x2 = 0.9	1.72
